{"source": "PubChem BioAssay AID2060611", "about": "(Molecular Pharmacology Branch, DTP, NCI, 2025);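 note: spheroids exposed to agents for seven days before readout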;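 for viability, T/C: 100% = DMSO vehicle control viability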", "tested_on": "628569-122-R-J1-PDC complex spheroid viability", "test": "Anticancer human tumor 628569-122-R-J1-PDC patient-derived head and neck squamous carcinoma cell line growth inhibition [CLK]", "settings": "for IC50: curve of first compound; for viability, T/C: stronger effect = lower value", "outline": "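Patient-derived tumor cells grown as complex spheroids with HUVEC endothelial cells and mesenchymal stem cells, treated with drug combinations. Concentrations descend in half-log steps from near clinical Cmax, or from 10 microM if Cmax unknown.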", "data": [{"smiles": "CC1COCCN1c1cc(C2(S(C)(=N)=O)CC2)nc(-c2ccnc3[nH]ccc23)n1", "note": "(centres undefined) + CN1CCN(c2cc(C(=O)Nc3cc4cc(-c5cnn(C)c5)ccc4cn3)ccn2)CC1", "values": [{"measurement": "IC50", "setting": "second compound 0.0316 µM", "value": 2620, "unit": "nM"}, {"measurement": "IC50", "setting": "second compound 0.1 µM", "value": 1420, "unit": "nM"}, {"measurement": "IC50", "setting": "second compound 0.316 µM", "value": "< 31.6", "unit": "nM"}, {"measurement": "IC50", "setting": "second compound 1 µM", "value": "< 31.6", "unit": "nM"}, {"measurement": "IC50", "setting": "second compound 3.16 µM", "value": "< 31.6", "unit": "nM"}, {"measurement": "IC50", "setting": "second compound 10 µM", "value": "< 31.6", "unit": "nM"}, {"measurement": "viability, T/C", "setting": "second compound 0.0316 µM, first compound 0.0316 µM", "value": 101, "unit": "%"}, {"measurement": "viability, T/C", "setting": "second compound 0.0316 µM, first compound 0.1 µM", "value": 95.9, "unit": "%"}, {"measurement": "viability, T/C", "setting": "second compound 0.0316 µM, first compound 0.316 µM", "value": 79.1, "unit": "%"}, {"measurement": "viability, T/C", "setting": "second compound 0.0316 µM, first compound 1 µM", "value": 60.8, "unit": "%"}, {"measurement": "viability, T/C", "setting": "second compound 0.0316 µM, first compound 3.16 µM", "value": 45.9, "unit": "%"}, {"measurement": "viability, T/C", "setting": "second compound 0.0316 µM, first compound 10 µM", "value": 46.1, "unit": "%"}, {"measurement": "viability, T/C", "setting": "second compound 0.1 µM, first compound 0.0316 µM", "value": 68.2, "unit": "%"}, {"measurement": "viability, T/C", "setting": "second compound 0.1 µM, first compound 0.1 µM", "value": 75.6, "unit": "%"}, {"measurement": "viability, T/C", "setting": "second compound 0.1 µM, first compound 0.316 µM", "value": 59, "unit": "%"}, {"measurement": "viability, T/C", "setting": "second compound 0.1 µM, first compound 1 µM", "value": 53.6, "unit": "%"}, {"measurement": "viability, T/C", "setting": "second compound 0.1 µM, first compound 3.16 µM", "value": 45.4, "unit": "%"}, {"measurement": "viability, T/C", "setting": "second compound 0.1 µM, first compound 10 µM", "value": 41.2, "unit": "%"}, {"measurement": "viability, T/C", "setting": "second compound 0.316 µM, first compound 0.0316 µM", "value": 34.3, "unit": "%"}, {"measurement": "viability, T/C", "setting": "second compound 0.316 µM, first compound 0.1 µM", "value": 41.9, "unit": "%"}, {"measurement": "viability, T/C", "setting": "second compound 0.316 µM, first compound 0.316 µM", "value": 36, "unit": "%"}, {"measurement": "viability, T/C", "setting": "second compound 0.316 µM, first compound 1 µM", "value": 38.4, "unit": "%"}, {"measurement": "viability, T/C", "setting": "second compound 0.316 µM, first compound 3.16 µM", "value": 27.2, "unit": "%"}, {"measurement": "viability, T/C", "setting": "second compound 0.316 µM, first compound 10 µM", "value": 24.7, "unit": "%"}, {"measurement": "viability, T/C", "setting": "second compound 1 µM, first compound 0.0316 µM", "value": 9.71, "unit": "%"}, {"measurement": "viability, T/C", "setting": "second compound 1 µM, first compound 0.1 µM", "value": 9.35, "unit": "%"}, {"measurement": "viability, T/C", "setting": "second compound 1 µM, first compound 0.316 µM", "value": 7.68, "unit": "%"}, {"measurement": "viability, T/C", "setting": "second compound 1 µM, first compound 1 µM", "value": 7.29, "unit": "%"}, {"measurement": "viability, T/C", "setting": "second compound 1 µM, first compound 3.16 µM", "value": 7.44, "unit": "%"}, {"measurement": "viability, T/C", "setting": "second compound 1 µM, first compound 10 µM", "value": 10.3, "unit": "%"}, {"measurement": "viability, T/C", "setting": "second compound 3.16 µM, first compound 0.0316 µM", "value": 8.58, "unit": "%"}, {"measurement": "viability, T/C", "setting": "second compound 3.16 µM, first compound 0.1 µM", "value": 5.23, "unit": "%"}, {"measurement": "viability, T/C", "setting": "second compound 3.16 µM, first compound 0.316 µM", "value": 6.65, "unit": "%"}, {"measurement": "viability, T/C", "setting": "second compound 3.16 µM, first compound 1 µM", "value": 9.55, "unit": "%"}, {"measurement": "viability, T/C", "setting": "second compound 3.16 µM, first compound 3.16 µM", "value": 9.82, "unit": "%"}, {"measurement": "viability, T/C", "setting": "second compound 3.16 µM, first compound 10 µM", "value": 9.3, "unit": "%"}, {"measurement": "viability, T/C", "setting": "second compound 10 µM, first compound 0.0316 µM", "value": 4.43, "unit": "%"}, {"measurement": "viability, T/C", "setting": "second compound 10 µM, first compound 0.1 µM", "value": 4.71, "unit": "%"}, {"measurement": "viability, T/C", "setting": "second compound 10 µM, first compound 0.316 µM", "value": 5.12, "unit": "%"}, {"measurement": "viability, T/C", "setting": "second compound 10 µM, first compound 1 µM", "value": 4.78, "unit": "%"}, {"measurement": "viability, T/C", "setting": "second compound 10 µM, first compound 3.16 µM", "value": 4.88, "unit": "%"}, {"measurement": "viability, T/C", "setting": "second compound 10 µM, first compound 10 µM", "value": 4.15, "unit": "%"}]}, {"smiles": "NC(=O)C(=Cn1cnc(-c2cc(C(F)(F)F)cc(C(F)(F)F)c2)n1)c1cncnc1", "note": "+ CN1CCN(c2cc(C(=O)Nc3cc4cc(-c5cnn(C)c5)ccc4cn3)ccn2)CC1", "values": [{"measurement": "IC50", "setting": "second compound 0.0316 µM", "value": 681, "unit": "nM"}, {"measurement": "IC50", "setting": "second compound 0.1 µM", "value": 28.5, "unit": "nM"}, {"measurement": "IC50", "setting": "second compound 0.316 µM", "value": "< 9.49", "unit": "nM"}, {"measurement": "IC50", "setting": "second compound 1 µM", "value": "< 9.49", "unit": "nM"}, {"measurement": "IC50", "setting": "second compound 3.16 µM", "value": "< 9.49", "unit": "nM"}, {"measurement": "IC50", "setting": "second compound 10 µM", "value": "< 9.49", "unit": "nM"}, {"measurement": "viability, T/C", "setting": "second compound 0.0316 µM, first compound 0.00949 µM", "value": 79.3, "unit": "%"}, {"measurement": "viability, T/C", "setting": "second compound 0.0316 µM, first compound 0.03 µM", "value": 67.5, "unit": "%"}, {"measurement": "viability, T/C", "setting": "second compound 0.0316 µM, first compound 0.0949 µM", "value": 76, "unit": "%"}, {"measurement": "viability, T/C", "setting": "second compound 0.0316 µM, first compound 0.3 µM", "value": 76.1, "unit": "%"}, {"measurement": "viability, T/C", "setting": "second compound 0.0316 µM, first compound 0.949 µM", "value": 38.1, "unit": "%"}, {"measurement": "viability, T/C", "setting": "second compound 0.0316 µM, first compound 3 µM", "value": 41.8, "unit": "%"}, {"measurement": "viability, T/C", "setting": "second compound 0.1 µM, first compound 0.00949 µM", "value": 47.6, "unit": "%"}, {"measurement": "viability, T/C", "setting": "second compound 0.1 µM, first compound 0.03 µM", "value": 53, "unit": "%"}, {"measurement": "viability, T/C", "setting": "second compound 0.1 µM, first compound 0.0949 µM", "value": 47.4, "unit": "%"}, {"measurement": "viability, T/C", "setting": "second compound 0.1 µM, first compound 0.3 µM", "value": 35, "unit": "%"}, {"measurement": "viability, T/C", "setting": "second compound 0.1 µM, first compound 0.949 µM", "value": 22.3, "unit": "%"}, {"measurement": "viability, T/C", "setting": "second compound 0.1 µM, first compound 3 µM", "value": 13.7, "unit": "%"}, {"measurement": "viability, T/C", "setting": "second compound 0.316 µM, first compound 0.00949 µM", "value": 31.6, "unit": "%"}, {"measurement": "viability, T/C", "setting": "second compound 0.316 µM, first compound 0.03 µM", "value": 22.2, "unit": "%"}, {"measurement": "viability, T/C", "setting": "second compound 0.316 µM, first compound 0.0949 µM", "value": 8.26, "unit": "%"}, {"measurement": "viability, T/C", "setting": "second compound 0.316 µM, first compound 0.3 µM", "value": 6.76, "unit": "%"}, {"measurement": "viability, T/C", "setting": "second compound 0.316 µM, first compound 0.949 µM", "value": 4.81, "unit": "%"}, {"measurement": "viability, T/C", "setting": "second compound 0.316 µM, first compound 3 µM", "value": 2.61, "unit": "%"}, {"measurement": "viability, T/C", "setting": "second compound 1 µM, first compound 0.00949 µM", "value": 8.6, "unit": "%"}, {"measurement": "viability, T/C", "setting": "second compound 1 µM, first compound 0.03 µM", "value": 7.83, "unit": "%"}, {"measurement": "viability, T/C", "setting": "second compound 1 µM, first compound 0.0949 µM", "value": 5.77, "unit": "%"}, {"measurement": "viability, T/C", "setting": "second compound 1 µM, first compound 0.3 µM", "value": 4.21, "unit": "%"}, {"measurement": "viability, T/C", "setting": "second compound 1 µM, first compound 0.949 µM", "value": 5.37, "unit": "%"}, {"measurement": "viability, T/C", "setting": "second compound 1 µM, first compound 3 µM", "value": 1.7, "unit": "%"}, {"measurement": "viability, T/C", "setting": "second compound 3.16 µM, first compound 0.00949 µM", "value": 6.02, "unit": "%"}, {"measurement": "viability, T/C", "setting": "second compound 3.16 µM, first compound 0.03 µM", "value": 7.42, "unit": "%"}, {"measurement": "viability, T/C", "setting": "second compound 3.16 µM, first compound 0.0949 µM", "value": 10.8, "unit": "%"}, {"measurement": "viability, T/C", "setting": "second compound 3.16 µM, first compound 0.3 µM", "value": 16.6, "unit": "%"}, {"measurement": "viability, T/C", "setting": "second compound 3.16 µM, first compound 0.949 µM", "value": 4.54, "unit": "%"}, {"measurement": "viability, T/C", "setting": "second compound 3.16 µM, first compound 3 µM", "value": 1.65, "unit": "%"}, {"measurement": "viability, T/C", "setting": "second compound 10 µM, first compound 0.00949 µM", "value": 4.54, "unit": "%"}, {"measurement": "viability, T/C", "setting": "second compound 10 µM, first compound 0.03 µM", "value": 4.5, "unit": "%"}, {"measurement": "viability, T/C", "setting": "second compound 10 µM, first compound 0.0949 µM", "value": 6.08, "unit": "%"}, {"measurement": "viability, T/C", "setting": "second compound 10 µM, first compound 0.3 µM", "value": 5.71, "unit": "%"}, {"measurement": "viability, T/C", "setting": "second compound 10 µM, first compound 0.949 µM", "value": 1.68, "unit": "%"}, {"measurement": "viability, T/C", "setting": "second compound 10 µM, first compound 3 µM", "value": 1.21, "unit": "%"}]}]}
